# Results: paper PMC7997574, “Lead Optimization of Benzoxazolone Carboxamides as Orally Bioavailable and CNS Penetrant Acid Ceramidase Inhibitors” (Journal of Medicinal Chemistry, 2020)
# How the values were obtained:
# [1] = target: T1, AC (Homo sapiens, UniProt Q13510); test: Fluorogenic hAC assay on hAC-enriched lysate of HEK293 cells; type: biochemical; design: expressed in transfected cells; settings: hAC expressed in HEK-293 cells; read-out: hAC IC50 (μM)±SD
# T1 sequence (Q13510 22-395): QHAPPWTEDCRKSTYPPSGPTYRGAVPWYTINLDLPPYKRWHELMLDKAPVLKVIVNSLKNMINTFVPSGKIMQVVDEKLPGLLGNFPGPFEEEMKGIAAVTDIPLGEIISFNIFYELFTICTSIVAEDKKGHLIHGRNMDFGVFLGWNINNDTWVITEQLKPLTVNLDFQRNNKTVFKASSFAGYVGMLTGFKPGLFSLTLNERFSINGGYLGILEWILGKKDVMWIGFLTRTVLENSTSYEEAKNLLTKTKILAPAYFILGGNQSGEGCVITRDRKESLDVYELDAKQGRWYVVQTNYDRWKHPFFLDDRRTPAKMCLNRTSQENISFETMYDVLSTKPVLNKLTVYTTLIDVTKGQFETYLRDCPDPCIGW
# Summary of the method: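 Lysosome-enriched lysate (2 μg protein) from HEK293 cells stably expressing hAC, in 25 mM NaOAc pH 4.5. Pre-incubated 10 min with compound, then incubated 3 h at 37 °C with fluorogenic substrate Rbm14–12 (5 μM final, ~KM). Fluorescence (355/460 nm) read after NaIO4 development; IC50 by nonlinear regression, mean of ≥3 experiments.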
# [2] = Maximum tolerated dose (MTD) study in C57BL/6 mice; type: in vivo, mouse; settings: i.p. dose escalation 20, 40, 80, 120 mg kg^–1 over 4 days
# Procedure: An MTD study was conducted on male C57BL/6 mice (15–19 g, 5 weeks old, SLAC Laboratory Animal Co. Ltd.). Animals were injected via intraperitoneal (i.p.) injection with single administration at 20 mg kg^–1 (N = 18, vehicle: 100% saline at 0.6 mg mL^–1) and multiple administrations for a duration of 4 days at 20 (N = 18, day 1), 40 (N = 18, day 2), 80 (N = 18, day 3), and 120 mg kg^–1 (N = 18, day 4). Clinical observations/samples of plasma, CSF, and brain were collected at 0.25, 0.5, 1, 4, 8, and 24 h. All procedures were performed in accordance with the Ethical Guidelines on the Protection of Animals Used for Scientific Purposes at the DMPK Group at Shanghai ChemPartner Co., Ltd.
# [3] = target: T1, AC; test: hAC LC/MS-based activity assay in SH-SY5Y cells; type: cell-based; design: host or cells: SH-SY5Y
# Procedure: SH-SY5Y cells were purchased from Sigma Aldrich (Italy) and cultured in Dulbecco’s modified Eagle’s medium (DMEM) containing 10% fetal bovine serum at 37 °C and 5% CO2. Drugs were dissolved in DMSO (10 mM) and diluted in the cell culture medium with reduced serum (1%) for cell treatments.
# hAC activity measurement was performed as previously described.[36],[37] Total lysates from cells were diluted in assay buffer (100 mM sodium phosphate, 0.1% Nonidet P-40, 150 mM NaCl, 3 mM DTT, 100 mM sodium citrate, pH 4.5). Reactions were started by the addition of 50 μM N-lauroyl ceramide (Nu-Chek Prep, Elysian, MN) and carried out for 1 h at 37 °C. Reactions were stopped by addition of a mixture of CHCl3/MeOH (2:1) containing 1 nmol of 11-lauroleic acid (Nu-Chek Prep). The organic phases were collected, dried under nitrogen, and analyzed by UPLC/MS (ACQUITY, Waters) in the negative-ion mode monitoring the reaction product (lauric acid, m/z: 199) using 11-lauroleic acid as internal standard. […] The [M–H]^− ion was monitored in the selected-ion monitoring mode (m/z values: lauric acid 199, 11-lauroleic acid 197.35). […]
smiles,measurement,setting,value
"CC(C)CNC(=O)n1c(=O)oc2cc(C3CCN(C)CC3)ccc21 [22m, N-Isobutyl-6-(1-methyl-4-piperidyl)-2-oxo-1,3-benzoxazole-3-carboxamide]",IC50,[1],0.166 ± 0.089 µM
same,clinical observations in MTD study,[2],no clinical abnormalities were observed
same,AC activity in SH-SY5Y cells,"[3]; 1, 2.5, 5, 10 μM, 30 min, 1 h, 3 h, 6 h",concentration- (Figure 5A) and time-dependent reduction of AC activity
same,persistence of effect on AC activity inhibition and SphL,"[3]; SH-SY5Y cells, 10 μM",persisted for up to 6 h
